Test results taken from US10189841B2, “Purinones as ubiquitin-specific protease 1 inhibitors” (Forma Therapeutics, Inc., priority 2015, dated 2019).

Molecular target: USP1 (construct USP1 (I-785, GG670, 671AA)/UAF1 (I-677)-Flag) (Homo sapiens (Human), UniProt O94782, G670A/G671A)
Assay: Ubiquitin-Rhodamine 110 assay for USP1 activity
Format: biochemical
Settings: USP1/UAF1 25 pM, Ub-Rh110 25 nM, 30 min preincubation
Summary of the method: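 Ub-Rh110 (25 nM, ≪Km) cleavage read at ex 485/em 535 in Tris pH 8.0, CaCl2, GSH, Prionex, Triton X-100. The screen used 10 µM compound, 100 pM USP1/UAF1 and 45 min at RT.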

Chain of USP1 (construct USP1 (I-785, GG670, 671AA)/UAF1 (I-677)-Flag) (O94782 whole entry G670A/G671A): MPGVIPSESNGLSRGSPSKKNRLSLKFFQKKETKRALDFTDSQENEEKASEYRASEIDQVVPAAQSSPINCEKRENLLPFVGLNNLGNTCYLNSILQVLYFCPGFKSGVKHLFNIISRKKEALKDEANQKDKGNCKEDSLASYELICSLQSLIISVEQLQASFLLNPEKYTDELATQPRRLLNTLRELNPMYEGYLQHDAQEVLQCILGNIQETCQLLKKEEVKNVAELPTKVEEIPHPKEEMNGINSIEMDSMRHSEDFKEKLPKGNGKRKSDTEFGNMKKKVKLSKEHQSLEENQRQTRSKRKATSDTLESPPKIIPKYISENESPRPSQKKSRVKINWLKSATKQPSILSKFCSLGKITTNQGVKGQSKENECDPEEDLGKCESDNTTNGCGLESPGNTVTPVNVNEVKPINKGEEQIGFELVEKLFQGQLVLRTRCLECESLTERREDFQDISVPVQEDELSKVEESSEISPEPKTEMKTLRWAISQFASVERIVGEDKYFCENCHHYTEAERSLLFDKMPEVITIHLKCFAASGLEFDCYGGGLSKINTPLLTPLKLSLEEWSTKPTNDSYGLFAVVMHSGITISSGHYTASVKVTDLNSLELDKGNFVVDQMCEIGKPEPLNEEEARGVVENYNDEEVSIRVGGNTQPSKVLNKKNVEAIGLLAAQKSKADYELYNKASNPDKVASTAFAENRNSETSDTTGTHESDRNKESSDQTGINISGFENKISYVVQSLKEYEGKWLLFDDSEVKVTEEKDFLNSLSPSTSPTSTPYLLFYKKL
Chain of USP1 (construct USP1 (I-785, GG670, 671AA)/UAF1 (I-677)-Flag) (Q8TAF3 whole entry partner): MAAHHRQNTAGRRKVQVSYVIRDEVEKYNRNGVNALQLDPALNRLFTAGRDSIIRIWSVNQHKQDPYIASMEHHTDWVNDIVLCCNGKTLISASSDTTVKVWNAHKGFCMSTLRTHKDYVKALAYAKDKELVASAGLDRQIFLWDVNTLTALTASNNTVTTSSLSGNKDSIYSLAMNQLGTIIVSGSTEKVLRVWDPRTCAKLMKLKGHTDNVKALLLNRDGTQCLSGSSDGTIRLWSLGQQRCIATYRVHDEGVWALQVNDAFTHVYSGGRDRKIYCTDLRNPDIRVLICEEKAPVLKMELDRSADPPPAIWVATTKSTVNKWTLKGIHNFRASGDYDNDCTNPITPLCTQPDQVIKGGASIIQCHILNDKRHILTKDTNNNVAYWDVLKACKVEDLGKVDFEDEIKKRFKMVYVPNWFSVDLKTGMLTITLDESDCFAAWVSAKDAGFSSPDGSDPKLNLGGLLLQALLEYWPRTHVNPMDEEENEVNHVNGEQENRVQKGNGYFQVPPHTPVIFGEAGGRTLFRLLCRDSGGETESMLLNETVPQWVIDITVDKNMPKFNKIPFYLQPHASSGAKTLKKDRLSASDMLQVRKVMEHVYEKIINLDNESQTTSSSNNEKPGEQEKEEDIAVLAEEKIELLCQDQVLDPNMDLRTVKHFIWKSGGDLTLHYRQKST

CC(C)c1ccccc1-c1ncc2c(n1)n(Cc1ccc(-c3cnn4c3COCC4)cc1)c(=O)n2C [Compound I-265, 9-(4-(6,7-dihydro-4H-pyrazolo[5,1-c][1,4]oxazin-3-yl)benzyl)-2-(2-isopropylphenyl)-7-methyl-7,9-dihydro-8H-purin-8-one]
IC50: 0.2 to 2 µM

CC(C)c1ccccc1-c1ncc2c(n1)n(Cc1ccc(-c3cccc4ncnn34)cc1)c(=O)n2C [Compound I-266, 9-(4-([1,2,4]triazolo[1,5-a]pyridin-5-yl)benzyl)-2-(2-isopropylphenyl)-7-methyl-7,9-dihydro-8H-purin-8-one]
IC50: 0.05 to 0.2 µM

CC(C)c1ccccc1-c1ncc2c(n1)n(Cc1ccc(-c3cccc4cnoc34)cc1)c(=O)n2C [Compound I-267, 9-(4-(benzo[d]isoxazol-7-yl)benzyl)-2-(2-isopropylphenyl)-7-methyl-7,9-dihydro-8H-purin-8-one]
IC50: 0.2 to 2 µM

CC(C)c1ccccc1-c1ncc2c(n1)n(Cc1ccc(-c3cccc4cn[nH]c34)cc1)c(=O)n2C [Compound I-268, 9-(4-(1H-indazol-7-yl)benzyl)-2-(2-isopropylphenyl)-7-methyl-7,9-dihydro-8H-purin-8-one]
IC50: 0.05 to 0.2 µM

CC(C)c1ccccc1-c1ncc2c(n1)n(Cc1ccc(-c3cccn4ccnc34)cc1)c(=O)n2C [Compound I-269, 9-(4-(imidazo[1,2-a]pyridin-8-yl)benzyl)-2-(2-isopropylphenyl)-7-methyl-7,9-dihydro-8H-purin-8-one]
IC50: < 0.05 µM

CC(C)c1ccccc1-c1ncc2c(n1)n(Cc1ccc(-c3cccc4nccn34)cc1)c(=O)n2C [Compound I-270, 9-(4-(imidazo[1,2-a]pyridin-5-yl)benzyl)-2-(2-isopropylphenyl)-7-methyl-7,9-dihydro-8H-purin-8-one]
IC50: 0.2 to 2 µM

CC(C)c1ccccc1-c1ncc2c(n1)n(Cc1ccc(-c3cn(C)cn3)cc1)c(=O)n2C [Compound I-271, 2-(2-isopropylphenyl)-7-methyl-9-(4-(1-methyl-1H-imidazol-4-yl)benzyl)-7,9-dihydro-8H-purin-8-one]
IC50: < 0.05 µM

CC(C)c1ccccc1-c1ncc2c(n1)n(Cc1ccc(-c3ncn(C)n3)cc1)c(=O)n2C [Compound I-272, 2-(2-isopropylphenyl)-7-methyl-9-(4-(1-methyl-1H-1,2,4-triazol-3-yl)benzyl)-7,9-dihydro-8H-purin-8-one]
IC50: 0.05 to 0.2 µM

CC(C)c1ccccc1-c1ncc2[nH]c(=O)n(Cc3ccc(-c4cn(C)cn4)cc3)c2n1 [Compound I-273, 2-(2-isopropylphenyl)-9-(4-(1-methyl-1H-imidazol-4-yl)benzyl)-7,9-dihydro-8H-purin-8-one]
IC50: < 0.05 µM

CC(C)c1ccccc1-c1ncc2[nH]c(=O)n(Cc3ccc(-c4ncn(C)n4)cc3)c2n1 [Compound I-274, 2-(2-isopropylphenyl)-9-(4-(1-methyl-1H-1,2,4-triazol-3-yl)benzyl)-7,9-dihydro-8H-purin-8-one]
IC50: 0.05 to 0.2 µM

CC(C)c1ccccc1-c1ncc2[nH]c(=O)n(Cc3ccc(-c4cn(C(C)C)cn4)cc3)c2n1 [Compound I-275, 9-(4-(1-isopropyl-1H-imidazol-4-yl)benzyl)-2-(2-isopropylphenyl)-7,9-dihydro-8H-purin-8-one]
IC50: < 0.05 µM

Cc1nc(-c2ccc(Cn3c(=O)n(C)c4cnc(-c5ccccc5C(C)C)nc43)cc2)cn1C [Compound I-276, 9-(4-(1,2-dimethyl-1H-imidazol-4-yl)benzyl)-2-(2-isopropylphenyl)-7-methyl-7,9-dihydro-8H-purin-8-one]
IC50: < 0.05 µM

CC(C)c1ccccc1-c1ncc2c(n1)n(Cc1ccc(-c3cn(C(C)C)cn3)cc1)c(=O)n2C [Compound I-277, 9-(4-(1-isopropyl-1H-imidazol-4-yl)benzyl)-2-(2-isopropylphenyl)-7-methyl-7,9-dihydro-8H-purin-8-one]
IC50: < 0.05 µM

CC(C)c1ccccc1-c1ncc2c(n1)n(Cc1ccc(-c3nc(C(N)=O)n(C)n3)cc1)c(=O)n2C [Compound I-278, 3-(4-((2-(2-isopropylphenyl)-7-methyl-8-oxo-7,8-dihydro-9H-purin-9-yl)methyl)phenyl)-1-methyl-1H-1,2,4-triazole-5-carboxamide]
IC50: 0.05 to 0.2 µM

Cc1nc(-c2ccc(Cn3c(=O)n(C)c4cnc(-c5ccccc5C(C)C)nc43)cc2)nn1C [Compound I-279, 9-(4-(1,5-dimethyl-1H-1,2,4-triazol-3-yl)benzyl)-2-(2-isopropylphenyl)-7-methyl-7,9-dihydro-8H-purin-8-one]
IC50: < 0.05 µM

CC(C)c1ccccc1-c1ncc2c(n1)n(Cc1ccc(-c3nc(C(F)(F)F)n(C)n3)cc1)c(=O)n2C [Compound I-280, 2-(2-isopropylphenyl)-7-methyl-9-(4-(1-methyl-5-(trifluoromethyl)-1H-1,2,4-triazol-3-yl)benzyl)-7,9-dihydro-8H-purin-8-one]
IC50: < 0.05 µM

COc1nc(-c2ccc(Cn3c(=O)n(C)c4cnc(-c5ccccc5C(C)C)nc43)cc2)nn1C [Compound I-281, 2-(2-isopropylphenyl)-9-(4-(5-methoxy-1-methyl-1H-1,2,4-triazol-3-yl)benzyl)-7-methyl-7,9-dihydro-8H-purin-8-one]
IC50: < 0.05 µM

CC(C)c1ccccc1-c1ncc2c(n1)n(Cc1ccc(-c3nc(N4CCOCC4)n(C)n3)cc1)c(=O)n2C [Compound I-282, 2-(2-isopropylphenyl)-7-methyl-9-(4-(1-methyl-5-morpholino-1H-1,2,4-triazol-3-yl)benzyl)-7,9-dihydro-8H-purin-8-one]
IC50: 0.05 to 0.2 µM

Cc1nc(-c2ccc(Cn3c(=O)n(C)c4cnc(-c5ccccc5C(C)C)nc43)cc2)n(C)n1 [Compound I-283, 9-(4-(1,3-dimethyl-1H-1,2,4-triazol-5-yl)benzyl)-2-(2-isopropylphenyl)-7-methyl-7,9-dihydro-8H-purin-8-one]
IC50: < 0.05 µM

CC(C)c1ccccc1-c1ncc2c(n1)n(Cc1ccc(-c3ccnn3C(C)C)cc1)c(=O)n2C [Compound I-284, 9-(4-(1-isopropyl-1H-pyrazol-5-yl)benzyl)-2-(2-isopropylphenyl)-7-methyl-7,9-dihydro-8H-purin-8-one]
IC50: 0.2 to 2 µM

CC(C)c1ccccc1-c1ncc2c(n1)n(Cc1ccc(-c3cnnn3C)cc1)c(=O)n2C [Compound I-285, 2-(2-isopropylphenyl)-7-methyl-9-(4-(1-methyl-1H-1,2,3-triazol-5-yl)benzyl)-7,9-dihydro-8H-purin-8-one]
IC50: 0.2 to 2 µM

CC(C)c1ccccc1-c1ncc2c(n1)n(Cc1ccc(-c3nnc4ccccn34)cc1)c(=O)n2C [Compound I-286, 9-(4-([1,2,4]triazolo[4,3-a]pyridin-3-yl)benzyl)-2-(2-isopropylphenyl)-7-methyl-7,9-dihydro-8H-purin-8-one]
IC50: < 0.05 µM

CC(C)c1ccccc1-c1ncc2c(n1)n(Cc1ccc(-c3cn(C)nn3)cc1)c(=O)n2C [Compound I-287, 2-(2-isopropylphenyl)-7-methyl-9-(4-(1-methyl-1H-1,2,3-triazol-4-yl)benzyl)-7,9-dihydro-8H-purin-8-one]
IC50: < 0.05 µM

CC(C)c1ccccc1-c1ncc2c(n1)n(Cc1ccc(-c3ncn(C)c3CO)cc1)c(=O)n2C [Compound I-288, 9-(4-(5-(hydroxymethyl)-1-methyl-1H-imidazol-4-yl)benzyl)-2-(2-isopropylphenyl)-7-methyl-7,9-dihydro-8H-purin-8-one]
IC50: 0.2 to 2 µM
